From US9573975B2, “Melanoma antigen peptide and uses thereof” (INSERM (INSTITUT NATIONAL DE LA SANTE ET DE LA RECHERCHE …, priority 2012, dated 2017)

Tested on: MELOE-1 specific CD4 T cell clones
Assay: Recognition of autologous DC loaded with antigen by CD4 T cell clones (TNF-α)
Format: cell-based, human
Procedure: FIG. 4: Class II epitopes are naturally processed from MELOE-1 whole antigen. Autologous DC, were loaded (before or after fixation) with MELOE-12-46 (1 μM) or, as a negative control, with Melan-A16-40L peptide (1 μM), and matured. T cell clones were then stimulated with DC at a ratio 1:1, during 5 h in presence of Brefeldin A, then stained with APC-conjugated anti-CD3 mAb, fixed with 4% paraformaldehyde, labeled with PE-conjugated anti-TNF-α mAb and analyzed by flow cytometry. Histograms illustrated the % of TNF-α producing cells among CD3 positive T cells.
Dendritic Cells Generation and Loading Monocytes were purified from PBMC of healthy donors by a CD14-enrichment kit, according the recommendations of the supplier (Stem Cell, France). Immature dendritic cells (iDC) were generated by culturing monocytes in RPMI supplemented with 20 mg/mL of human albumin, 1000 IU/mL of GM-CSF and 200 IU/mL of IL-4 for 5 days. Then, iDC were pulsed with the whole MELOE-1 (1 μM) protein or the modified Melan-A16-40 A27L as negative control (1 μM) and matured with 20 ng/mL of TNF-α and 50 μg/mL of PolyI:C for 4 hours at 37° C. Finally they were fixed for 1 minute with PBS/0.015% glutaraldehyde. Alternatively, iDC were first matured, fixed and then pulsed with antigens at the same concentration. […]

With “MSCVGYPDEATSREQFLPSEGAACPPWHPSERISSTLNDECWPASL [MELOE-1]” as the sequence, how does the “recognition by specific CD4 T cell clones of loaded autologous DC” value (DC loaded after DC fixation) read?
Its value is “only a weak recognition”.

And the “reactivity of the four CD4 T cell clones against loaded autologous DC” value (iDC loaded with 1 μM in serum-free medium, matured, then fixed)?
The value was “reactive”.
